Reference: patent US8461328B2, “Tricyclic heterocyclic compounds, compositions and methods of use thereof” (Genentech, Inc., priority 2010, dated 2013)
Where two headings read alike, the source gives them in different places.

Tests used:
Format in all cases: biochemical
JAK1 = target: T1, JAK1 (Homo sapiens, UniProt P23458); assay: JAK1 inhibition (Table 4); details: read-out: JAK1 Ki
T1 construct: made in house; host or cells: SF9 insect cells (baculovirus)

JAK2 = target: T2, JAK2 (Homo sapiens, UniProt O60674); assay: JAK2 inhibition (Table 4)
T2 construct: made in house; host or cells: SF9 insect cells (baculovirus)
T2 sequence (O60674 812-1132): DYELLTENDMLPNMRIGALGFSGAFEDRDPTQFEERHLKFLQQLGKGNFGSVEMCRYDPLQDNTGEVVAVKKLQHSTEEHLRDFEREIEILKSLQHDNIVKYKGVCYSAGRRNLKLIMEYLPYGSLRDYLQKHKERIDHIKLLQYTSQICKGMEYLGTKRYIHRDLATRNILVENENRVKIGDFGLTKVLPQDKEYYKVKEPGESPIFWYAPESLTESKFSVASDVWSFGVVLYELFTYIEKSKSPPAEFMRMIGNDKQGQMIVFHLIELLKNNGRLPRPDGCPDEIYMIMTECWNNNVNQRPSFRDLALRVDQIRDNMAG

JAK3 = target: T3, JAK3 (Homo sapiens, UniProt P52333); assay: JAK3 inhibition (Table 4); details: read-out: JAK3 Ki
T3 construct: made in house; host or cells: SF9 insect cells (baculovirus)
T3 sequence (P52333 783-1124): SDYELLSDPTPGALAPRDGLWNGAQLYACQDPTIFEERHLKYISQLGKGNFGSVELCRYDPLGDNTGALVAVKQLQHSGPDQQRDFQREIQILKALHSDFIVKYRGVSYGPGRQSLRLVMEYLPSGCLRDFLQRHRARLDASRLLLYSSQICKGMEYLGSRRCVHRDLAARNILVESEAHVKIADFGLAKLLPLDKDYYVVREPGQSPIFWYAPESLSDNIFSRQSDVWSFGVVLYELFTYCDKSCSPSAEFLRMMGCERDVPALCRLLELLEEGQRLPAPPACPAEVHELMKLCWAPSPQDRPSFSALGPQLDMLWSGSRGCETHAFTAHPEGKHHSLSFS

TYK2 = target: T4, TYK2 (Homo sapiens, UniProt P29597); assay: TYK2 inhibition (Table 4)
T4 construct: made in house; host or cells: SF9 insect cells (baculovirus)
T4 sequence (P29597 873-1187): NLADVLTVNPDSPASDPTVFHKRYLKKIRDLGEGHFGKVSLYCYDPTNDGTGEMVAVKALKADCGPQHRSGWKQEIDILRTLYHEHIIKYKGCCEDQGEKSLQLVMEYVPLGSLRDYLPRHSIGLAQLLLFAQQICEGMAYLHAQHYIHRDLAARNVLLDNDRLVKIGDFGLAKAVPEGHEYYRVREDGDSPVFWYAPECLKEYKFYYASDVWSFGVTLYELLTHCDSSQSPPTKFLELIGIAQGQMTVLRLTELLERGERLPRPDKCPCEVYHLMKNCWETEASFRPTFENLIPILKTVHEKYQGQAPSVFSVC

T1 sequence (P23458 852-1154): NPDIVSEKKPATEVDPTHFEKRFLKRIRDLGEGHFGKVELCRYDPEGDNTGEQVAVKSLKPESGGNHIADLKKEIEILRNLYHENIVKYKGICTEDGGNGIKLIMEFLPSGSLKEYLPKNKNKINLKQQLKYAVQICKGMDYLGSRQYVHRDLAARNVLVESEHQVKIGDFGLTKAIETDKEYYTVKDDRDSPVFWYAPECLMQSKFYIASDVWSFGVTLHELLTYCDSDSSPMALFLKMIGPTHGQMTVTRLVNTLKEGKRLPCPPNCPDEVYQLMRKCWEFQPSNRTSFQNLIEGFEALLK

Ki (JAK1) [nM] | Ki (JAK2; read-out: JAK2 Ki) [nM] | Ki (JAK3) [nM] | Ki (TYK2) [nM] | SMILES | Ki (JAK2; JAK2 Ki) [nM]
316 | 1170 | – | – | CN1CCC(C(=O)N2CCC(n3cnc4cnc5[nH]ccc5c43)CC2)C1 (racemic) [Example 452, (1-Methyl-pyrrolidin-3-yl)-[4-(6H-1,3,5,6-tetraaza-as-indacen-1-yl)-piperidin-1-yl]-methanone] | –
263 | 1410 | – | – | CN1CCCC(C(=O)N2CCC(n3cnc4cnc5[nH]ccc5c43)CC2)C1 (single isomer, unassigned) [Example 453, (1-Methyl-piperidin-3-yl)-[4-(6H-1,3,5,6-tetraaza-as-indacen-1-yl)-piperidin-1-yl]-methanone] | –
547 | 1310 | – | – | CN1CCCC(C(=O)N2CCC(n3cnc4cnc5[nH]ccc5c43)CC2)C1 (single isomer, unassigned) [Example 454, (1-Methyl-piperidin-3-yl)-[4-(6H-1,3,5,6-tetraaza-as-indacen-1-yl)-piperidin-1-yl]-methanone] | –
339 | 930 | 1450 | – | CC(=O)N1CCC(n2c(C(F)(F)CN)nc3cnc4[nH]ccc4c32)CC1 [Example 139, 1-{4-[2-(2-Amino-1,1-difluoro-ethyl)-6H-1,2,3,5,6-tetraaza-as-indacen-1-yl]-piperidin-1-yl}-ethanone] | –
181 | 587 | 784 | – | c1cncc(-c2nc3cnc4[nH]ccc4c3n2C2CCNCC2)c1 [Example 153, 1-Piperidin-4-yl-2-pyridin-3-yl-1,6-dihydro-1,2,3,5,6-tetraaza-as-indacene] | –
15.3 | 28.4 | 9.24 | – | c1ccc(CN2CCC(n3c(C4CCOCC4)nc4cnc5[nH]ccc5c43)CC2)cc1 [Example 154, 1-(1-Benzyl-piperidin-4-yl)-2-(tetrahydro-pyran-4-yl)-1,6-dihydro-1,2,3,5,6-tetraaza-as-indacene] | –
120 | 452 | 304 | – | c1ccc(CN2CCC(n3c(CN4CCOCC4)nc4cnc5[nH]ccc5c43)CC2)cc1 [Example 155, 1-(1-Benzyl-piperidin-4-yl)-2-morpholin-4-ylmethyl-1,6-dihydro-1,2,3,5,6-tetraaza-as-indacene] | –
52.8 | 129 | 57.1 | – | CC(C)(C#N)c1nc2cnc3[nH]ccc3c2n1C1CCN(Cc2cnccn2)CC1 [Example 164, 2-Methyl-2-[1-(1-pyrazin-2-ylmethyl-piperidin-4-yl)-1,6-dihydro-1,2,3,5,6-tetraaza-as-indacen-2-yl]-propionitrile] | –
49.9 | 241 | 103 | – | CC(C)(O)c1nc2cnc3[nH]ccc3c2n1C1CCN(Cc2ccccc2)CC1 [Example 171, 2-[1-(1-Benzyl-piperidin-4-yl)-1,6-dihydro-1,2,3,5,6-tetraaza-as-indacen-2-yl]-propan-2-ol] | –
106 | 494 | 47 | – | O=C(c1nc2cnc3[nH]ccc3c2n1C1CCN(Cc2ccccc2)CC1)N1CCOCC1 [Example 237, [1-(1-Benzyl-piperidin-4-yl)-1,6-dihydro-1,3,5,6-tetraaza-as-indacen-2-yl]-morpholin-4-yl-methanone] | –
438 | – | – | – | CC(O)c1nc2cnc3[nH]ccc3c2n1C1CCCN(C(=O)CC2CCCO2)C1 (centres unmarked) [Example 789, 1-{3-[2-(1-Hydroxy-ethyl)-6H-1,3,5,6-tetraaza-as-indacen-1-yl]-piperidin-1-yl}-2-(tetrahydro-furan-2-yl)-ethanone] | –
– | 54.7 | 61.4 | 116 | CS(=O)(=O)NCc1nc2cnc3[nH]ccc3c2n1C1CCN(CCF)CC1 [Example 913, N-{1-[1-(2-Fluoro-ethyl)-piperidin-4-yl]-1,6-dihydro-1,3,5,6-tetraaza-as-indacen-2-ylmethyl}-methanesulfonamide] | –
– | 35.4 | 60.6 | 40.3 | CS(=O)(=O)NCc1nc2cnc3[nH]ccc3c2n1C1CCN(CC(F)F)CC1 [Example 914, N-{1-[1-(2,2-Difluoro-ethyl)-piperidin-4-yl]-1,6-dihydro-1,3,5,6-tetraaza-as-indacen-2-ylmethyl}-methanesulfonamide] | –
255 | 1420 | – | – | CC(C)N1CCCC[C@H]1C(=O)N1CCC(n2cnc3cnc4[nH]ccc4c32)CC1 [Example 950, ((S)-1-Isopropyl-piperidin-2-yl)-[4-(6H-1,3,5,6-tetraaza-as-indacen-1-yl)-piperidin-1-yl]-methanone] | –
142 | 628 | – | – | COCCN1CCCC[C@H]1C(=O)N1CCC(n2cnc3cnc4[nH]ccc4c32)CC1 [Example 952, [(S)-1-(2-Methoxy-ethyl)-piperidin-2-yl]-[4-(6H-1,3,5,6-tetraaza-as-indacen-1-yl)-piperidin-1-yl]-methanone] | –

Further lines, the molecule ahead of its results:

SMILES | Ki (JAK1) [nM] | Ki (JAK2; read-out: JAK2 Ki) [nM] | Ki (JAK3) [nM] | Ki (TYK2) [nM] | Ki (JAK2; JAK2 Ki) [nM]
Cc1nc2cnc3[nH]ccc3c2n1C(C)C1CCCO1 (single isomer, unassigned) [Example 427, 2-Methyl-1-[1-(tetrahydro-furan-2-yl)-ethyl]-1,6-dihydro-1,3,5,6-tetraaza-as-indacene] | 201 | 167 | – | – | –
COCC(=O)NC1CCCC(n2cnc3cnc4[nH]ccc4c32)C1 (single isomer, unassigned) [Example 483, 2-Methoxy-N-[3-(6H-1,3,5,6-tetraaza-as-indacen-1-yl)-cyclohexyl]-acetamide] | 472 | 832 | 613 | – | –
c1cc2c(ncc3nc(C4CCCN4)n(C4CCCOC4)c32)[nH]1 (single isomer, unassigned) [Example 665] | 432 | 1800 | 1780 | – | –
c1cc2c(ncc3nc(C4CCCN4)n(C4CCCOC4)c32)[nH]1 (single isomer, unassigned) [Example 666] | 1690 | – | 4010 | – | –
c1cc(N2CCC[C@@H](n3cnc4cnc5[nH]ccc5c43)C2)ccn1 [Example 13, (R)-1-(3,4,5,6-Tetrahydro-2H-[1,4]bipyridinyl-3-yl)-1,6-dihydro-1,2,3,5,6-tetraaza-as-indacene] | 179 | 898 | 1840 | – | –
CC(C)(O)Cc1nc2cnc3[nH]ccc3c2n1C1CCNCC1 [Example 173, 2-Methyl-1-(1-piperidin-4-yl-1,6-dihydro-1,2,3,5,6-tetraaza-as-indacen-2-yl)-propan-2-ol] | 215 | – | 3900 | – | –
CC(C)(C)OC(=O)N1CC(F)(F)C[C@H]1C(=O)N1CCC(n2cnc3cnc4[nH]ccc4c32)CC1 [Example 243, (S)-4,4-Difluoro-2-[4-(6H-1,3,5,6-tetraaza-as-indacen-1-yl)-piperidine-1-carbonyl]-pyrrolidine-1 carboxylic acid tert-butyl ester] | 357 | 446 | – | – | –
CC(C)(O)c1nc2cnc3[nH]ccc3c2n1C1CCNCC1 [Example 334, 2-(1-Piperidin-4-yl-1,6-dihydro-1,3,5,6-tetraaza-as-indacen-2-yl)-propan-2-ol] | 137 | 2240 | 2550 | – | –
COCCC(=O)N1CCC[C@@H](n2c([C@@H](C)O)nc3cnc4[nH]ccc4c32)C1 [Example 784, 1-{(R)-3-[2-((R)-1-Hydroxy-ethyl)-6H-1,3,5,6-tetraaza-as-indacen-1-yl]-piperidin-1-yl}-3-methoxy-propan-1-one] | 224 | – | – | – | –
CC(O)c1nc2cnc3[nH]ccc3c2n1C1CCCN(C(=O)C2CC(=O)N(C)C2)C1 (centres unmarked) [Example 787, 4-{3-[2-(1-Hydroxy-ethyl)-6H-1,3,5,6-tetraaza-as-indacen-1-yl]-piperidine-1-carbonyl}-1-methyl-pyrrolidin-2-one] | 464 | – | 2490 | – | –
COC1CCC(C(=O)N2CCCC(n3c(C(C)O)nc4cnc5[nH]ccc5c43)C2)CC1 (centres unmarked) [Example 799, {3-[2-(1-Hydroxy-ethyl)-6H-1,3,5,6-tetraaza-as-indacen-1-yl]-piperidin-1-yl}-(4-methoxy-cyclohexyl)-methanone] | 456 | – | – | – | –
CS(=O)(=O)NCc1nc2cnc3[nH]ccc3c2n1C1CCCC1 [Example 874, N-(1-Cyclopentyl-1,6-dihydro-1,3,5,6-tetraaza-as-indacen-2-ylmethyl)-methanesulfonamide] | – | 162 | 242 | 114 | –
CS(=O)(=O)NCc1nc2cnc3[nH]ccc3c2n1C1CC2CCC1C2 (centres unmarked) [Example 894, N-(1-Bicyclo[2.2.1]hept-2-yl-1,6-dihydro-1,3,5,6-tetraaza-as-indacen-2-ylmethyl)-methanesulfonamide] | – | – | 37.4 | 6.46 | 6.18
CC1CCCCC1n1c(CNS(C)(=O)=O)nc2cnc3[nH]ccc3c21 (centres unmarked) [Example 917, N-[1-(2-Methyl-cyclohyl)-1,6-dihydro-1,3,5,6-tetraaza-as-indacen-2-ylmethyl]-methanesulfonamide] | – | 73.6 | 65 | 112 | –
CC(=O)NCc1nc2cnc3[nH]ccc3c2n1C1CCCCC1 [Example 918, N-(1-Cyclohyl-1,6-dihydro-1,3,5,6-tetraaza-as-indacen-2-ylmethyl)-acetamide] | – | 93.9 | 60 | 30.1 | –
Cc1nc2cnc3[nH]ccc3c2n1[C@H]1CC[C@@H](C(C)(C)O)CC1 [Example 958, Cis-2-[4-(2-Methyl-6H-1,3,5,6-tetraaza-as-indacen-1-yl)-cyclohexyl]-propan-2-ol] | – | 5.13 | 36.8 | 14.3 | –
